This is an account of results in publication PMC7838034 (Acta Pharmaceutica Sinica. B, 2020).

Broadly, the IC50 is the concentration at which inhibition is half-maximal. For orientation: AUC(0-t) means exposure summed from dosing to a finite time, without extrapolation to infinity. One may read the MRT inf as a mean duration of stay, worked out from the concentration-time curve.

Data set [1] concerns BRD4 and PARP1 in MCF-7 tumor tissues. The experiment in a line: IHC staining of tumor tissue. To be noted: 19d treatment groups. The class given is in vivo, nude mice (BALB/c).
The target in data set [2] is recombinant BRD4(BD1 + BD2) (Homo sapiens, UniProt O60885). The experiment in a line: BRD4 inhibition assay. The class given is binding.
The nature of data set [3]: HE staining of major organs of xenograft mice. Particulars: after 19d treatment, all groups of both xenograft models. The data set is classed as in vivo, nude mice (BALB/c).
Data set [4] has as its system MDA-MB-468 cells. The experiment in a line: Cell viability assay. To be noted: Homo sapiens, MDA-MB-468, 24 h, read-out: Anti-proliferative activity (IC50). The class given is cell-based, human.
Data set [5] in a line: Pharmacokinetic study, oral. The class given is in vivo, Sprague–Dawley rats.
For data set [6], the system named is BRD4 and PARP1 in MDA-MB-468 tumor tissues. The experiment in a line: IHC staining of tumor tissue. The data set is classed as in vivo, nude mice (BALB/c). Particulars: 40 mg/kg, compared with control group.
Data set [7] relates to MDA-MB-468 cells. The experiment in a line: Colony formation assay. The data set is classed as cell-based, human. To be noted: compared with DMSO-treated control.
For data set [8], the system named is protein expression in MDA-MB-468 cells. In words: Western blot analysis. The data set is classed as cell-based, human. (A western blot detects proteins with antibodies after separation by electrophoresis.)
Data set [9] concerns MDA-MB-468 tumor xenograft. The experiment in a line: MDA-MB-468 breast cancer xenograft model.
For a further data set, the target named is PARP1 (Homo sapiens, UniProt P09874). The experiment in a line: PARP1 inhibition assay. The class given is biochemical. To be noted: tested in duplicate, average.
The next data set has as its system MCF-7 cells. In words: Annexin V-FITC/PI apoptosis assay. The class given is cell-based, human.
For data set [10], the system named is MDA-MB-468 cells. In words: Annexin V-FITC/PI apoptosis assay. The class given is cell-based, human. Particulars: 1, 3.3 and 10 μmol/L.
In the next data set the test system is MCF-7 tumor xenograft. In words: MCF-7 breast cancer xenograft model.
The mark [11] stands for this setting: male, Sprague-Dawley, rat, plasma, po, 10 mg/kg.

PARP1, sequence (P09874 whole entry): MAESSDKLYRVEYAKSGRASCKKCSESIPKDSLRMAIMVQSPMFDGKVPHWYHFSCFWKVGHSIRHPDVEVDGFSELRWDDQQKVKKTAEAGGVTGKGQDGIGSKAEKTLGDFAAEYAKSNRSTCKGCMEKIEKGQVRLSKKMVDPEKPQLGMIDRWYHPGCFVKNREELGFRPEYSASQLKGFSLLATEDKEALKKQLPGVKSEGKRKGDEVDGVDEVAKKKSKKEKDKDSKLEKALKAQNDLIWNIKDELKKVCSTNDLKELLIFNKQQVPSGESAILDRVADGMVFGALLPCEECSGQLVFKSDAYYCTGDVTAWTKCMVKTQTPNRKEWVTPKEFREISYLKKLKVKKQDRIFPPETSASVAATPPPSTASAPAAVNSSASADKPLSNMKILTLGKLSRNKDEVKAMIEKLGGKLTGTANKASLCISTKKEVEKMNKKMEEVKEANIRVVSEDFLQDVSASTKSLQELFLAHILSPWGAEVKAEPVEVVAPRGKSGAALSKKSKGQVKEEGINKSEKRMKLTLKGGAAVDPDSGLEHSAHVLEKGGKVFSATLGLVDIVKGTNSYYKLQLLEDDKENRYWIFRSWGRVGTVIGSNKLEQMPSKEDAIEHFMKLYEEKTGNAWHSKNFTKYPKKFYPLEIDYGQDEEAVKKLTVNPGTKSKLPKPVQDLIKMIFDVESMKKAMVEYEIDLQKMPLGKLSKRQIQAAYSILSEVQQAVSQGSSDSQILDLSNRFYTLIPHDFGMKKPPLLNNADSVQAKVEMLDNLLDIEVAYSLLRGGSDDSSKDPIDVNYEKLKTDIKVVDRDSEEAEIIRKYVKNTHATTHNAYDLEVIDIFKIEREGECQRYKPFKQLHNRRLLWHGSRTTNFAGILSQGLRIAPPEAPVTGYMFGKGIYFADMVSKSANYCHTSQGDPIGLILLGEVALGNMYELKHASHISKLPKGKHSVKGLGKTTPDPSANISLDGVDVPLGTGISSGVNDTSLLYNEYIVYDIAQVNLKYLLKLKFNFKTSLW

For the compound `COc1cc(OC)c2c(=O)[nH]c(-c3ccc(OCCOc4ccccc4C(N)=O)cc3)nc2c1` [Compound 19d, 2-(2-(4-(5,7-Dimethoxy-4-oxo-3,4-dihydroquinazolin-2-yl)phenoxy)ethoxy)benzamide], the “expression levels of BRD4 and PARP1 in tumor tissues” value in [1] is “slightly downregulated”; in data set [6] it was “effectively suppressed”. Moreover, the “improved efficacy against BRD4 than RVX-208” value in data set [2] (ratio of BRD4 IC50 values) is given as above 30 fold. The inhibition at 1 µM in data set [2] (read-out: Inhibition rate BRD4, 1 μmol/L, tested in duplicate, average) worked out at 69%; at PARP1 (read-out: Inhibition rate PARP1, 1 μmol/L), 37%. Further, the inhibition at 10 µM in data set [2] (read-out: Inhibition rate BRD4, 10 μmol/L, tested in duplicate, average) came out at 92%; on PARP1 (read-out: Inhibition rate PARP1, 10 μmol/L) it was 88%. Moreover, the “histological changes in major organs (HE)” value in data set [3] is listed as “no visible histological changed”. In addition, the IC50 in the data set with MDA-MB-468 cells [4] was 3.4 ± 1.1 µM. Further, the “AUC0−∞” value in data set [5] (SD rats, p.o. 10 mg/kg, n = 3, mean ± SD) was found to be 144.72 ± 25.51 ng·h/mL. This compound came in with an AUC(0-t) in [5] (setting [11]) of 114 ± 15.8 ng·h/mL. The mean residence time (MRT inf) in data set [5] (setting [11]) is 5.35 ± 0.44 h. Moreover, the colony counts entry with MDA-MB-468 cells [7] is given as “remarkably decreased the colony counts”. Also, the PAR expression result in data set [8] (2 μmol/L, 24 h) is reported as “effective downregulation”. In data set [8] (2 μmol/L, 24 h), the c-Myc expression entry was “higher c-Myc inhibition efficiency than RVX-208”. Further, in [8] (1, 3.3 and 10 μmol/L), the “BAX and active form of caspase-3 expression” value is “increased”. The BCL-2 expression entry in [8] (1, 3.3 and 10 μmol/L) is “remarkably downregulated”. In data set [8] (1, 3.3 and 10 μmol/L, 24 h), the “expression of c-Myc and PAR” value was “decreased the expression of c-Myc and PAR in a dose-dependent manner”. In [9] (80 mg/kg oral, once a day), the “tumor growth inhibition (TGI)” value turned out to be 55.3%. Further, in data set [9] (20, 40 and 80 mg/kg oral), the “body weight change and death during treatment” value is “slight body weight change and no death of mice”. For the same compound, the figures for the apoptosis induction entry in the data set on MCF-7 cells and with MDA-MB-468 cells [10] were “no significant changes” and “induced apoptosis in a dose-dependent manner”, respectively. Besides, in the data set on MCF-7 tumor xenograft (80 mg/kg oral, once a day), the TGI rate worked out at 48.3%. The “toxicity (body weight) of the dosages used” value in the data set with MCF-7 tumor xenograft (20, 40 and 80 mg/kg oral) is recorded as “no apparent toxicity”.
